Columns and labels:
[1] = in vivo; cited from earlier work
F1-ATPase β-subunit = F1-ATPase β-subunit (Homo sapiens, UniProt P06576); details: effect of the analog on binding of 125I-β-casomorphin1-7 to F1-ATPase β-subunit; cited from earlier work
rats = details: in overnight fasted rats; cited from earlier work
AMPK = assay: pAMPK Western blot in HepG2 cells, 15 min incubation; assay type: cell-based, human
Experimental: Human liver cells (HepG2 cell line, American Type Culture Collection, Manassas, Va.) were grown and maintained in Dulbecco's modified eagle's medium (Gibco, Carlsbad, Calif.) containing 10% fetal bovine serum, penicillin (100 I.U./ml), and streptomycin (100 μg/ml). The cells were then incubated for 15 min with 5 mM glucose and various concentrations of enterostatin (0.003, 0.01, 0.1, 1, and 3 μM) and/or of its antagonist β-casomorphin (BCM) (0.003, 0.01, 0.1, 1, and 3 μM). After incubation, the cells were lysed and the cytosolic proteins subjected to Western blot analysis for AMPK and pAMPK. The results for pAMPK activity are shown in FIG. 5A (enterostatin) and FIG. 5B (BCM). […] This effect was blocked by the presence of an antibody to the enterostatin receptor (anti F1-ATPase beta subunit).

Chain of F1-ATPase β-subunit (P06576 48-529): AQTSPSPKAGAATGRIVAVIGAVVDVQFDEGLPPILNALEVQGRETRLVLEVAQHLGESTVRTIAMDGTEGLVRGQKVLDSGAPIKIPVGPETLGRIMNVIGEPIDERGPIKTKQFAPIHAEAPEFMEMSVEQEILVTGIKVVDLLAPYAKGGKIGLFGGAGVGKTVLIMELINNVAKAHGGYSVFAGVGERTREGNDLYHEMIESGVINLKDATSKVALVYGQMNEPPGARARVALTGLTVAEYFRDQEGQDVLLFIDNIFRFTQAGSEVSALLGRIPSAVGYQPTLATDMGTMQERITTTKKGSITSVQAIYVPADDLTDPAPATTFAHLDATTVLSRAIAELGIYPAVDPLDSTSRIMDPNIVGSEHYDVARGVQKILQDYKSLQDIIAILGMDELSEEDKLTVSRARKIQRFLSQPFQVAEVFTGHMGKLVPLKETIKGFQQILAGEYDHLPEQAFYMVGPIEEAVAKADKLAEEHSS

Row | Compound | Binding of 125I-β-casomorphin1-7 (F1-ATPase β-subunit) | Intake of high fat diet (rats) | further results
1 | CC1=NS(=O)(=O)c2cc(Cl)ccc2N1 [Diazoxide, diazoxide] | – | – | Duration of action [1]: about 8 hr; Time to act (increase of blood sugar) [1]: ≤ 1 h
2 | APGPR | Increased | Suppression | –
3 | APGPRCY [enterostatin analog] | Increased | Suppression | –
4 | APGPRY | Increased | No changes | –
5 | APGPY | Increased | Suppression | –
6 | CYAPGPR [enterostatin analog] | Displaced | Stimulation | –
7 | CYDPGPR [enterostatin analog] | Displaced | Stimulation | –
8 | DPGPR | Displaced | No changes | –
9 | Glucagon: drug for severe hypoglycemia that stimulates the liver to release large amounts of glucose | – | – | Time to restore blood sugar [1]: 5 to 15 min
10 | PDP | Increased | Suppression | –
11 | PGP | Increased | No changes | –
12 | PGPCY | Increased | No changes | –
13 | VPDPR | Increased | Suppression | –
14 | VPDPR-NH2 | Displaced | No changes | –
15 | VPDPRCY [enterostatin analog] | Increased | Suppression | –
16 | YGGAPGPR [enterostatin analog] | Increased | Suppression | –
17 | YPDPR | Increased | Suppression | –
18 | YPFPGPI [enterostatin analog] | Displaced | Stimulation | –
19 | YPGPR | Increased | Suppression | –
20 | YVPDPR | Increased | Suppression | –
21 | cyclo-HP | – | ^bOnly inhibits food intake as cyclo-HP. | –
22 | β-casomorphin [reference compound] | – | – | pAMPK levels (AMPK; HepG2, 0.1 or 1.0 μM, 15 min): increased pAMPK levels; Effect on pAMPK in presence of antibody anti F1-ATPase beta subunit (AMPK; HepG2, 15 min, 5 mM glucose): blocked this effect; AMPkinase activity shown by pAMPK (AMPK; HepG2, 15 min, 5 mM glucose, 0.003-3 μM): activated AMPkinase
